From patent publication US11981671B2, “Bicyclic pyrazolyl amines as CDK2 inhibitors” (Incyte Corporation, priority 2021, dated 2024)

What follows are compounds tested against CDK2/Cyclin E1 (Homo sapiens (Human), UniProt P24941) (assay: CDK2/Cyclin E1 HTRF enzyme activity assay). Details: 1 mM ATP; CDK2/Cyclin E1 0.25 nM; 60 minutes at room temperature.
Format: biochemical
Protocol: Example A. CDK2/Cyclin E1 HTRF Enzyme Activity Assay
CDK2/Cyclin E1 enzyme activity assays utilize full-length human CDK2 co-expressed as N-terminal GST-tagged protein with FLAG-Cyclin E1 in a baculovirus expression system (Carna Product Number 04-165). Assays were conducted in white 384-well polystyrene plates in a final reaction volume of 8 μL. CDK2/Cyclin E1 (0.25 nM) was incubated with the compounds of the Examples (40 nL serially diluted in DMSO) in the presence of ATP (50 μM or 1 mM) and 50 nM ULight™-labeled eIF4E-binding protein 1 (THR37/46) peptide (PerkinElmer) in assay buffer (containing 50 mM HEPES pH 7.5, 1 mM EGTA, 10 mM MgCl2, 2 mM DTT, 0.05 mg/mL BSA, and 0.01% Tween 20) for 60 minutes at room temperature. The reactions were stopped by the addition of EDTA and Europium-labeled anti-phospho-4E-BP1 antibody (PerkinElmer), for a final concentration of 15 mM and 1.5 nM, respectively. HTRF signals were read after 1 hour at room temperature on a PHERAstar FS plate reader (BMG Labtech). Data was analyzed with IDBS XLFit and GraphPad Prism 5.0 software using a three or four parameter dose response curve to determine IC50 for each compound.

IC50, ≤ 0.01 µM:
Cc1cc(-c2c(-c3cn[nH]c3)ccn3nc(Nc4ccnc(C)c4C)nc23)c(F)cn1 [Example 6, N-(2,3-Dimethylpyridin-4-yl)-8-(5-fluoro-2-methylpyridin-4-yl)-7-(1H-pyrazol-4-yl)-[1,2,4]triazolo[1,5-a]pyridin-2-amine]
Cc1nccc(Nc2nc3c(-c4cc(C#N)ccc4F)c(-c4cn[nH]c4)ccn3n2)c1C [Example 2, 3-(2-((2,3-Dimethylpyridin-4-yl)amino)-7-(1H-pyrazol-4-yl)-[1,2,4]triazolo[1,5-a]pyridin-8-yl)-4-fluorobenzonitrile]
Cc1nccc(Nc2nc3c(-c4ccc(CN5CCCC5)c(F)c4)c(-c4cn[nH]c4)ccn3n2)c1C [Example 5, N-(2,3-Dimethylpyridin-4-yl)-8-(3-fluoro-4-(pyrrolidin-1-ylmethyl)phenyl)-7-(1H-pyrazol-4-yl)-[1,2,4]triazolo[1,5-a]pyridin-2-amine]
Cc1nccc(Nc2nc3c(-c4ccc5c(c4)oc(=O)n5C)c(-c4cn[nH]c4)ccn3n2)c1C [Example 1, 6-(2-((2,3-Dimethylpyridin-4-yl)amino)-7-(1H-pyrazol-4-yl)-[1,2,4]triazolo[1,5-a]pyridin-8-yl)-3-methylbenzo[d]oxazol-2(3H)-one]
Cc1cc(-c2c(-c3cn[nH]c3)ccn3nc(Nc4ccnc5ccccc45)nc23)c(F)cc1C#N [Example 7, 4-(7-(1H-Pyrazol-4-yl)-2-(quinolin-4-ylamino)-[1,2,4]triazolo[1,5-a]pyridin-8-yl)-5-fluoro-2-methylbenzonitrile]
Cc1nccc(Nc2nc3c(OC(C)C)c(-c4cn[nH]c4)ncn3n2)c1C [Example 10, N-(2,3-Dimethylpyridin-4-yl)-8-isopropoxy-7-(1H-pyrazol-4-yl)-[1,2,4]triazolo[1,5-c]pyrimidin-2-amine]
Cc1c(Nc2nc3c(OC(C)C)c(-c4cn[nH]c4)ncn3n2)ccnc1CO [Example 9, (4-((8-Isopropoxy-7-(1H-pyrazol-4-yl)-[1,2,4]triazolo[1,5-c]pyrimidin-2-yl)amino)-3-methylpyridin-2-yl)methanol]
Cc1c(Nc2nc3c(OC(C)C)c(-c4cn[nH]c4)ncn3n2)ccnc1CN(C)C [Example 8, N-(2-((Dimethylamino)methyl)-3-methylpyridin-4-yl)-8-isopropoxy-7-(1H-pyrazol-4-yl)-[1,2,4]triazolo[1,5-c]pyrimidin-2-amine]
Cc1c(Nc2nc3c(OC(C)C)c(-c4cn[nH]c4)ncn3n2)ccc2nccn12 [Example 11, 8-Isopropoxy-N-(5-methylimidazo[1,2-a]pyridin-6-yl)-7-(1H-pyrazol-4-yl)-[1,2,4]triazolo[1,5-c]pyrimidin-2-amine]
Cc1nccc(Nc2nc3c(-c4ccc(CO)cc4F)c(-c4cn[nH]c4)ccn3n2)c1C [Example 4, (4-(2-((2,3-Dimethylpyridin-4-yl)amino)-7-(1H-pyrazol-4-yl)-[1,2,4]triazolo[1,5-a]pyridin-8-yl)-3-fluorophenyl)methanol]
CC(C)Oc1c(-c2cn[nH]c2)ncn2nc(Nc3ccc(S(C)(=O)=O)cc3F)nc12 [Example 12, N-(2-Fluoro-4-(methylsulfonyl)phenyl)-8-isopropoxy-7-(1H-pyrazol-4-yl)-[1,2,4]triazolo[1,5-c]pyrimidin-2-amine]
Cc1nccc(Nc2nc3c(-c4ccc5c(cnn5C)c4)c(-c4cn[nH]c4)ccn3n2)c1C [Example 3, N-(2,3-Dimethylpyridin-4-yl)-8-(1-methyl-1H-indazol-5-yl)-7-(1H-pyrazol-4-yl)-[1,2,4]triazolo[1,5-a]pyridin-2-amine]
